Measured values: patent US11155517B2, “4-substituted phenylamine derivatives and their use to protect crops by fighting undesired phytopathogenic micoorganisms” (PI INDUSTRIES LTD., priority 2016, dated 2021)

Columns and labels:
Format in all cases: cell-based
Alternaria solani = Alternaria solani (early blight of tomato/potato) in vitro test, radial growth on Potato Dextrose Agar; settings: 168 h, 300 ppm, seven days, 25° C., read-out: % control compared to the untreated check (radial growth)
Colletotrichum capsici = Colletotrichum capsici (anthracnose) in vitro test, radial growth on Potato Dextrose Agar; settings: Colletotrichum truncatum, 168 h; 300 ppm; seven days, 25° C.; read-out: % control compared to the untreated check (radial growth)
Pyricularia oryzae = experiment: microbe, parasite or virus in culture; settings: 168 h, read-out: % control compared to the untreated check (radial growth)
Septoria lycopersici = Septoria lycopersici (leaf spot of tomato) in vitro test, radial growth on Potato Dextrose Agar; settings: 168 h, seven days, 25° C., read-out: % control compared to the untreated check (radial growth)
Rhizoctonia solani = Rhizoctonia solani (rice sheath blight/potato black scurf) in vitro test, radial growth on Potato Dextrose Agar; settings: 168 h, 300 ppm, seven days, 25° C., read-out: % control compared to the untreated check (radial growth)
Botrytis cinerea = Botrytis cinerea (gray mold) in vitro test, radial growth on Potato Dextrose Agar; settings: 168 h, 300 ppm, seven days, 22° C., read-out: % (control) compared to the untreated check (radial growth)

SMILES | inhibition of growth at 300 ppm (Alternaria solani) | inhibition of growth at 300 ppm (Colletotrichum capsici) | inhibition of growth at 300 ppm (Pyricularia oryzae) | inhibition of growth at 300 ppm (Septoria lycopersici) | inhibition of growth at 300 ppm (Rhizoctonia solani) | inhibition of growth at 300 ppm (Botrytis cinerea)
Cc1cc(N=CN2CCOCC2)c(C)cc1Cc1ccc(F)c(Cl)c1 [Compound 34, N-(4-(3-chloro-4-fluorobenzyl)-2,5-dimethylphenyl)-1-morpholinomethanimine] | > 75% | > 80% | > 75% | > 70% | > 80% | –
Cc1cc(N=CN2CCCCC2)c(C)cc1Cc1cccc(Br)c1F [Compound 37, N-(4-(3-bromo-2-fluorobenzyl)-2,5-dimethylphenyl)-1-(piperidin-1-yl)methanimine] | > 75% | > 80% | > 75% | > 70% | > 80% | > 80%
Cc1cc(N=CN2CCSCC2)c(C)cc1Cc1ccccc1Cl [Compound 86, N-(4-(2-chlorobenzyl)-2,5-dimethylphenyl)-1-thiomorpholinomethanimine] | > 75% | > 80% | > 75% | > 70% | > 80% | > 80%
CCN(C)C=Nc1cc(C)c(Cc2cc(C(F)(F)F)cc(C(F)(F)F)c2)cc1C [Compound 106, N′-(4-(3,5-bis(trifluoromethyl)benzyl)-2,5-dimethylphenyl)-N-ethyl-N-methylformimidamide] | > 75% | > 80% | > 75% | > 70% | > 80% | > 80%
CCN(C)C=Nc1cc(C)c(Cc2ccccc2OC(F)(F)F)cc1C [Compound 116, N′-(2,5-dimethyl-4-(2-(trifluoromethoxy)benzyl)phenyl)-N-ethyl-N-methylformimidamide] | > 75% | > 80% | > 75% | > 70% | > 80% | > 80%
CCN(C)C=Nc1cc(C)c(Cc2cc(C)cc(C)c2)cc1Cl [Compound 130, N′-(2-chloro-4-(3,5-dimethylbenzyl)-5-methylphenyl)-N-ethyl-N-methylformimidamide] | > 75% | > 80% | > 75% | > 70% | > 80% | > 80%
CCN(C)C=Nc1cc(C)c(Cc2cccc(F)c2Cl)cc1C [Compound 131, N′-(4-(2-chloro-3-fluorobenzyl)-2,5-dimethylphenyl)-N-ethyl-N-methylformimidamide] | > 75% | > 80% | > 75% | > 70% | > 80% | > 80%
CCN(C)C=Nc1cc(C)c(Cc2cc(C(F)(F)F)cc(Cl)c2F)cc1C [Compound 134, N′-(4-(3-chloro-2-fluoro-5-(trifluoromethyl)benzyl)-2,5-dimethylphenyl)-N-ethyl-N-methylformimidamide] | > 75% | > 80% | > 75% | > 70% | > 80% | > 80%
CCN(C)C=Nc1ccc(Cc2ccccc2F)cc1 [Compound 163, N-ethyl-N′(4-(2-fluorobenzyl)phenyl)-N-methylformimidamide] | > 75% | > 80% | > 75% | > 70% | > 80% | > 80%
CCN(C)C=Nc1ccc(Cc2ccccc2Cl)cc1 [Compound 164, N′-(4-(2-chlorobenzyl)phenyl)-N-ethyl-N-methylformimidamide] | > 75% | > 80% | > 75% | > 70% | > 80% | > 80%
CCN(C)C=Nc1cc(C)c(Cc2cc(C(F)(F)F)ccc2Cl)cc1Cl [Compound 168, N′-(2-chloro-4-(2-chloro-5-(trifluoromethyl)benzyl)-5-methylphenyl)-N-ethyl-N-methylformimidamide] | > 75% | > 80% | > 75% | > 70% | > 80% | > 80%
CCN(C)C=Nc1cc(C)c(Cc2ccc(Cl)c(OC(F)(F)F)c2)cc1Cl [Compound 177, N′-(2-chloro-4-(4-chloro-3-(trifluoromethoxy)benzyl)-5-methylphenyl)-N-ethyl-N-methylformimidamide] | > 75% | > 80% | > 75% | > 70% | > 80% | > 80%
CCN(C)C=Nc1cc(C)c(Cc2c(Cl)cccc2Cl)cc1Cl [Compound 195, N′-(2-chloro-4-(2,6-dichlorobenzyl)-5-methylphenyl)-N-ethyl-N-methylformimidamide] | > 75% | > 80% | > 75% | > 70% | – | > 80%
CCN(C)C=Nc1cc(F)c(Cc2cccc(Cl)c2)cc1F [Compound 243, N′-(4-(3-chlorobenzyl)-2,5-difluorophenyl)-N-ethyl-N-methylformimidamide] | > 75% | > 80% | > 75% | > 70% | > 80% | –
CCN(C)C=Nc1cc(F)c(Cc2ccc(C)cc2)cc1F [Compound 245, N′-(2,5-difluoro-4-(4-methylbenzyl)phenyl)-N-ethyl-N-methylformimidamide] | > 75% | > 80% | > 75% | > 70% | > 80% | > 80%
CCN(C)C=Nc1cc(C#N)c(Cc2ccccc2Cl)cc1C [Compound 246, N′-(4-(2-chlorobenzyl)-5-cyano-2-methylphenyl)-N-ethyl-N-methylformimidamide] | > 75% | > 80% | > 75% | > 70% | > 80% | > 80%
CCN(C)C=Nc1cc(F)c(Cc2ccccc2C)cc1F [Compound 254, N′-(2,5-difluoro-4-(2-methylbenzyl)phenyl)-N-ethyl-N-methylformimidamide] | > 75% | > 80% | > 75% | > 70% | > 80% | > 80%
CCN(C)C=Nc1cc(Cl)c(Cc2ccccc2Cl)cc1C [Compound 255, N′-(5-chloro-4-(2-chlorobenzyl)-2-methylphenyl)-N-ethyl-N-methylformimidamide] | > 75% | > 80% | > 75% | > 70% | > 80% | > 80%
